Results from ChEMBL document CHEMBL3046557, “Synthesis, biological evaluation, and molecular modeling studies of novel heterocyclic compounds as anti-proliferative agents” (2013).

Tests used:
Format in all cases: functional
[1] = system: SK-MEL-28; test: Cytotoxicity against human SK-MEL-28 after 48 hrs by SRB assay; settings: SK-MEL-28, 48 h
[2] = system: EKVX; test: Cytotoxicity against human EKVX after 48 hrs by SRB assay
[3] = system: Malme-3M; test: Cytotoxicity against human MALME-3M after 48 hrs by SRB assay
[4] = system: KM12; test: Cytotoxicity against human KM12 after 48 hrs by SRB assay; settings: KM12, 48 h
[5] = system: SW-620; test: Cytotoxicity against human SW620 after 48 hrs by SRB assay; settings: SW-620, 48 h
[6] = system: MDA-MB-231; test: Cytotoxicity against human MDA-MB-231 after 48 hrs by SRB assay; settings: MDA-MB-231, 48 h
[7] = system: TK-10; test: Cytotoxicity against human TK10 after 48 hrs by SRB assay; settings: TK-10, 48 h
[8] = system: SNB-75; test: Cytotoxicity against human SNB75 after 48 hrs by SRB assay; settings: SNB-75, 48 h
[9] = system: RPMI-8226; test: Cytotoxicity against human RPMI8226 after 48 hrs by SRB assay; settings: RPMI-8226, 48 h
[10] = system: SK-OV-3; test: Cytotoxicity against human SKOV3 after 48 hrs by SRB assay; settings: SK-OV-3, 48 h
[11] = system: OVCAR-3; test: Cytotoxicity against human OVCAR3 after 48 hrs by SRB assay; settings: OVCAR-3, 48 h
[12] = system: NCI-H460; test: Cytotoxicity against human NCI-H460 after 48 hrs by SRB assay; settings: NCI-H460, 48 h
[13] = system: PC-3; test: Cytotoxicity against human PC3 after 48 hrs by SRB assay; settings: PC-3, 48 h
[14] = system: M14; test: Cytotoxicity against human M14 after 48 hrs by SRB assay; settings: M14, 48 h
[15] = system: CCRF-CEM; test: Cytotoxicity against human CCRF-CEM after 48 hrs by SRB assay
[16] = system: OVCAR-4; test: Cytotoxicity against human OVCAR4 after 48 hrs by SRB assay; settings: OVCAR-4, 48 h
[17] = system: SK-MEL-2; test: Cytotoxicity against human SK-MEL-2 after 48 hrs by SRB assay; settings: SK-MEL-2, 48 h
[18] = system: SF-295; test: Cytotoxicity against human SF295 after 48 hrs by SRB assay; settings: SF-295, 48 h
[19] = Cytotoxicity against human NCI-ADR-RES after 48 hrs by SRB assay
[20] = system: SF-539; test: Cytotoxicity against human SF539 after 48 hrs by SRB assay; settings: SF-539, 48 h
[21] = system: MCF7; test: Cytotoxicity against human MCF7 after 48 hrs by SRB assay; settings: MCF7, 48 h
[22] = system: A549; test: Cytotoxicity against human A549 after 48 hrs by SRB assay; settings: A549, 48 h
[23] = system: COLO 205; test: Cytotoxicity against human COLO205 after 48 hrs by SRB assay; settings: COLO 205, 48 h
[24] = system: NCI-H322M; test: Cytotoxicity against human NCI-H322M after 48 hrs by SRB assay
[25] = system: HCT-116; test: Cytotoxicity against human HCT116 after 48 hrs by SRB assay; settings: HCT-116, 48 h
[26] = system: OVCAR-5; test: Cytotoxicity against human OVCAR5 after 48 hrs by SRB assay; settings: OVCAR-5, 48 h
[27] = system: HOP-62; test: Cytotoxicity against human HOP62 after 48 hrs by SRB assay; settings: HOP-62, 48 h
[28] = system: DU-145; test: Cytotoxicity against human DU145 after 48 hrs by SRB assay; settings: DU-145, 48 h
[29] = system: MOLT-4; test: Cytotoxicity against human MOLT4 after 48 hrs by SRB assay; settings: MOLT-4, 48 h
[30] = system: Hs-578T; test: Cytotoxicity against human Hs 578T after 48 hrs by SRB assay
[31] = system: ACHN; test: Cytotoxicity against human ACHN after 48 hrs by SRB assay
[32] = system: UACC-257; test: Cytotoxicity against human UACC257 after 48 hrs by SRB assay; settings: UACC-257, 48 h
[33] = system: NCI-H23; test: Cytotoxicity against human NCI-H23 after 48 hrs by SRB assay; settings: NCI-H23, 48 h
[34] = system: SR; test: Cytotoxicity against human SR after 48 hrs by SRB assay
[35] = system: 786-0; test: Cytotoxicity against human 786-0 after 48 hrs by SRB assay; settings: 786-0, 48 h
[36] = system: HCT-15; test: Cytotoxicity against human HCT15 after 48 hrs by SRB assay; settings: HCT-15, 48 h
[37] = system: CAKI-1; test: Cytotoxicity against human Caki1 after 48 hrs by SRB assay; settings: CAKI-1, 48 h
[38] = system: LOX IMVI; test: Cytotoxicity against human LOXIMVI after 48 hrs by SRB assay
[39] = system: HOP-92; test: Cytotoxicity against human HOP92 after 48 hrs by SRB assay; settings: HOP-92, 48 h
[40] = system: BT-549; test: Cytotoxicity against human BT549 after 48 hrs by SRB assay; settings: BT-549, 48 h
[41] = system: SNB-19; test: Cytotoxicity against human SNB19 after 48 hrs by SRB assay; settings: SNB-19, 48 h
[42] = system: HT-29; test: Cytotoxicity against human HT-29 after 48 hrs by SRB assay; settings: HT-29, 48 h
[43] = system: U-251; test: Cytotoxicity against human U251 after 48 hrs by SRB assay; settings: U-251, 48 h
[44] = system: K562; test: Cytotoxicity against human K562 after 48 hrs by SRB assay; settings: K562, 48 h
[45] = system: SN12C; test: Cytotoxicity against human SN12C after 48 hrs by SRB assay
[46] = system: RXF 393; test: Cytotoxicity against human RXF393 after 48 hrs by SRB assay; settings: RXF 393, 48 h
[47] = system: SK-MEL-5; test: Cytotoxicity against human SK-MEL-5 after 48 hrs by SRB assay; settings: SK-MEL-5, 48 h
[48] = system: T47D; test: Cytotoxicity against human T47D after 48 hrs by SRB assay
[49] = system: UACC-62; test: Cytotoxicity against human UACC62 after 48 hrs by SRB assay; settings: UACC-62, 48 h
[50] = system: UO-31; test: Cytotoxicity against human UO31 after 48 hrs by SRB assay; settings: UO-31, 48 h
[51] = system: NCI-H226; test: Cytotoxicity against human NCI-H226 after 48 hrs by SRB assay; settings: NCI-H226, 48 h
[52] = system: HCC 2998; test: Cytotoxicity against human HCC2998 after 48 hrs by SRB assay; settings: HCC 2998, 48 h
[53] = system: SF-268; test: Cytotoxicity against human SF268 after 48 hrs by SRB assay; settings: SF-268, 48 h
[54] = system: MDA-MB-435; test: Cytotoxicity against human MDA-MB-435 after 48 hrs by SRB assay; settings: MDA-MB-435, 48 h
[55] = system: NCI-H522; test: Cytotoxicity against human NCI-H522 after 48 hrs by SRB assay; settings: NCI-H522, 48 h
[56] = system: OVCAR-8; test: Cytotoxicity against human OVCAR8 after 48 hrs by SRB assay; settings: OVCAR-8, 48 h

CC12CCC(C(CN3C(=O)C(=O)c4ccccc43)C1=O)C2(C)C (configuration not stated)
GI50 [1]: 19.7 µM
TGI [1]: 39.5 µM
GI50 [2]: 19.6 µM
TGI [2]: 37.9 µM
GI50 [3]: 26.9 µM
TGI [3]: 44.8 µM
GI50 [4]: 4.12 µM
TGI [4]: 12.5 µM
GI50 [5]: 3.21 µM
TGI [5]: 9.25 µM
GI50 [6]: 15.1 µM
TGI [6]: 30 µM
GI50 [7]: 14.8 µM
TGI [7]: 28.5 µM
GI50 [8]: 17.1 µM
TGI [8]: 33.1 µM
GI50 [9]: 3.22 µM
TGI [9]: 17.2 µM
GI50 [10]: 14.8 µM
TGI [10]: 28.5 µM
GI50 [11]: 15.6 µM
TGI [11]: 33.5 µM
GI50 [12]: 16.9 µM
TGI [12]: 36.5 µM
GI50 [13]: 11.9 µM
TGI [13]: 25.9 µM
GI50 [14]: 15.9 µM
TGI [14]: 33.5 µM
GI50 [15]: 7.46 µM
TGI [15]: 28.6 µM
GI50 [16]: 18.8 µM
TGI [16]: 44.1 µM
GI50 [17]: 19 µM
TGI [17]: 41.7 µM
GI50 [18]: 11.1 µM
TGI [18]: 24.3 µM
GI50 [19]: 12.7 µM
TGI [19]: 35.3 µM
GI50 [20]: 12.8 µM
TGI [20]: 25.8 µM
GI50 [21]: 5.8 µM
TGI [21]: 24.6 µM
GI50 [22]: 16.9 µM
TGI [22]: 32.9 µM
GI50 [23]: 12.6 µM
TGI [23]: 29.2 µM
GI50 [24]: 23.4 µM
TGI [24]: 38.3 µM
GI50 [25]: 1.95 µM
TGI [25]: 3.76 µM
GI50 [26]: 14.8 µM
TGI [26]: 28.4 µM
GI50 [27]: 15.6 µM
TGI [27]: 30.1 µM
GI50 [28]: 14.9 µM
TGI [28]: 28.1 µM
GI50 [29]: 3.51 µM
TGI [29]: 10.6 µM
GI50 [30]: 13.8 µM
TGI [30]: 32.6 µM
GI50 [31]: 16.2 µM
TGI [31]: 29.7 µM
GI50 [32]: 13.9 µM
TGI [32]: 31.1 µM
GI50 [33]: 14.5 µM
TGI [33]: 29.6 µM
GI50 [34]: 1.53 µM
TGI [34]: 4.02 µM
GI50 [35]: 16.8 µM
TGI [35]: 30.8 µM
GI50 [36]: 17.1 µM
TGI [36]: 34.7 µM
GI50 [37]: 16.3 µM
TGI [37]: 31.3 µM
GI50 [38]: 10.4 µM
TGI [38]: 24.5 µM
GI50 [39]: 17.9 µM
TGI [39]: 38.3 µM
GI50 [40]: 12.3 µM
TGI [40]: 24.8 µM
GI50 [41]: 13.8 µM
TGI [41]: 26.6 µM
GI50 [42]: 5.45 µM
TGI [42]: 20.4 µM
GI50 [43]: 15.4 µM
TGI [43]: 29.3 µM
GI50 [44]: 2.46 µM
TGI [44]: 8.2 µM
GI50 [45]: 15.3 µM
TGI [45]: 31.6 µM
GI50 [46]: 5.46 µM
TGI [46]: 16.9 µM
GI50 [47]: 17.3 µM
TGI [47]: 33 µM
GI50 [48]: 20.6 µM
TGI [48]: 46.7 µM
GI50 [49]: 16.2 µM
TGI [49]: 30.6 µM
GI50 [50]: 13.2 µM
TGI [50]: 26.2 µM
GI50 [51]: 21.8 µM
TGI [51]: 61 µM
GI50 [52]: 13.5 µM
TGI [52]: 27.5 µM
GI50 [53]: 15.8 µM
TGI [53]: 36 µM
GI50 [54]: 15.6 µM
TGI [54]: 32.9 µM
GI50 [55]: 13.5 µM
TGI [55]: 29.4 µM
GI50 [56]: 2.86 µM
TGI [56]: 6.97 µM
